The record followed here is PMC12844744, “Complexed Linalool with Beta-Cyclodextrin Improve Antihypertensive Activity: Pharmacokinetic and Pharmacodynamic Insights” (Pharmaceuticals, 2025).

SMILES strings stand for the structures. Read-outs that look alike come from different tables or passages of the source.

Series [1] is described as follows: Plasma pharmacokinetics (non-compartmental analysis), healthy Wistar rats. The class given is in vivo. The note with it: NCA, mean ± SD; for Fabs, Absolute bioavailability: 100 mg/kg; for AUC(0-inf): n = 6, read-out: AUC0−∞, Total Area Under the Curve; for MRT: n = 6, read-out: MRT, Mean Residence Time; for k el: n = 6, read-out: ke, elimination rate constant (converted); for half-life: n = 6, read-out: t1/2, half-life (converted). On the procedure: A bioanalytical methodology was developed and validated to quantify LIN in rat plasma using high-performance liquid chromatography with UV detection (HPLC/UV), according to RDC 27/2012 of the National Agency of Sanitary Vigilance, Brazil. Plasma aliquots (100 µL) were extracted with 300 µL of acetonitrile.
The samples were vortexed for 3 min and centrifuged at 13,000× g for 15 min, at 8 °C. The supernatant aliquots were injected into an HPLC instrument (PerkinElmer, Waltham, MA, USA), Flexar™ HPLC model), using reversed-phase column C18 (Nucleosil column 250 mm × 4.6 mm internal diameter, particle size 5 μm (Macherey—Nagel, Versmold, Germany) protected by a guard column with the same material (Hypersil BDS, 10 mm, particle size 5 μm (Thermo Scientific, Waltham, MA, USA) at a temperature of 50 ± 1 °C during the analysis.
The mobile phase was composed of water: acetonitrile (70:30, v/v), at a flow rate of 1 mL/min. LIN was detected at a wavelength of 210 nm, and the peak area was used for the quantitation of samples. The method was precise, sensitive and accurate within the concentration range of 5–100 ng/mL. All samples quantified were between the concentration range, the higher concentrations were diluted to reach the higher linear concentration.
Plasma pharmacokinetic parameters were estimated after administration of 50 mg/kg and 100 mg/kg, i.v. and orally, respectively, of LIN; 100 mg/kg orally of LIN/β-CD, in healthy Wistar rats; and 50 mg/kg of LIN/β-CD, in SHRs.
The animals received the drugs at the above doses through the caudal lateral vein or by oral gavage. Six animals were evaluated per group, as stated in the literature. After administration of the compounds, approximately 200 µL of blood samples were collected from the caudal lateral vein at 0.083, 0.25, 0.5, 1, 1.5, 2, 4, 6, and 8 h. Plasma was separated by centrifugation (6800× g at 8 ± 1 °C for 15 min) and stored at −20 °C until analysis. Non-compartmental analysis (NCA) of the individual concentration-time profiles was performed using Excel® 2016 software (Microsoft Corporation, Redmond, […], USA).
Calculated pharmacokinetic parameters included: the elimination rate constant (ke), absorption rate constant (ka), area under the concentration-time curve from 0 h to infinity (AUC0−∞), clearance (Cltot), half-life (t1/2), the volume of distribution (V), mean residence time (MRT), mean absorption time (MAT), absolute bioavailability (Fabs) and relative bioavailability (Frel). All the pharmacokinetic (PK) parameters were estimated individually aby analyzing the individual PK profiles. Results were expressed as the mean ± SD, and the PK parameters were compared by ANOVA followed by Student’s t-test (α = 0.05).

Series [2] deals with spontaneously hypertensive rats (SHR). Kind of series: Histology of left ventricle and aorta (HE, Picrosirius Red) after 60-day treatment. To be noted: 50 mg/kg/day p.o., 60 days. The class given is in vivo, rat. As for the experimental part: After 60 days of treatment period, Wistar and SHRs were euthanized in a carbon dioxide (CO2) chamber. Hearts were carefully excised, and surrounding adipose tissue and vascular structures were meticulously removed. Each heart was weighed using an analytical balance, and the cardiac mass index was calculated by normalizing the heart weight to the total body weight of the animal. A transverse cut was then made, and the left and right ventricles, and thoracic aortas. Both tissues were fixed in 4% formaldehyde for histological processing.
The hearts and thoracic aortas were fixed in 4% buffered formaldehyde (0.1 M sodium phosphate buffer, pH 7.4), followed by washing in distilled water. Tissue dehydration was carried out in a graded ethanol series of increasing concentrations, ending with absolute ethanol. Samples were then cleared in xylene, embedded in paraffin, and sectioned using a microtome (RM2125RT, Leica®, Wetzlar, Germany) to obtain serial 5 μm sections. […]
Histological evaluation was conducted in a blinded manner. […] Parameters assessed included the presence or absence of inflammatory infiltrates, hemorrhagic areas, and structural alterations such as decreased cardiomyocyte volume, disruption of muscle fiber continuity, loss of transverse striations, sarcoplasmic granulation, contraction bands, and nuclear changes indicative of tissue injury. […]

In general, clearance refers to a measure of how efficiently the substance is removed, as volume per time. Usually MRT stands for a mean duration of stay, worked out from the concentration-time curve. Usually Vd stands for a proportionality between amount in the body and measured concentration, not a real space.

With `C=CC(C)(O)CCC=C(C)C` (stereo not drawn) [LIN, 3,7-dimethyl-1,6-octadien-3-ol], in series [1] (oral 100 mg/kg, n = 6), the “CL, clearance” value was determined as 84.3 ± 37.8 mL/min/kg; the “MAT, Mean absorption time” value was 4.69 ± 1.50 h; the “Vd, Volume of Distribution” value is 16.29 ± 10.73 L/kg; the “ka, absorption rate constant” value came out at 0.23 ± 0.07 h⁻¹. The “Fabs, Absolute bioavailability” value in series [1] (oral 100 mg/kg, n = 6, listed as LIN Free) worked out at 0.003 ± 0.001%. In series [1] (oral 100 mg/kg, n = 6, listed as free LIN), the “Fabs, Absolute bioavailability” value is “approximately 0.003%”. Also, in series [1] (rat, plasma, iv, i.v. 50 mg/kg), the AUC(0-inf) stood at 25300 ± 18600 ng·h/mL, the mean residence time (MRT) stood at 8.75 ± 4.78 h, the k el is 3.61e-05 s⁻¹ and the half-life was 6.6 ± 4.04 h. The clearance in series [1] (rat, plasma, iv, i.v. 50 mg/kg, n = 6, read-out: CL, clearance (converted)) is 50.5 mL/min/kg. In series [1] (rat, plasma, iv, i.v. 50 mg/kg, n = 6, read-out: Vd, Volume of Distribution), the volume of distribution (Vd) was determined as 25.2 ± 10.4 L/kg. Besides, in series [1] (rat, plasma, oral 100 mg/kg), the AUC(0-inf) worked out at 40 ± 20 ng·h/mL, the MRT was found to be 1.97 ± 0.65 h, the k el was 2.5e-05 s⁻¹ and the half-life is 8.64 ± 4.44 h. In addition, the Aortic histology result in series [2] (aorta) was “no signs of vascular remodeling”. The “Myocardial histology (hematoxylin-eosin)” value in series [2] (left ventricle) was “preserved myocardial morphology”.
